Measured values from BigSolDB 2.1.

CC1(C)CO[P+]([O-])(Oc2c(Br)cc(Br)cc2Br)OC1
solubility (mole fraction)
Conditions	in THF	in acetone	in acetonitrile	in chloroform	in dichloromethane	in ethanol	in ethyl acetate	in methanol	in methyl acetate	in toluene
288.15 K	–	–	–	0.0801	0.0492	–	–	–	0.0053	–
293.15 K	0.024	0.0131	0.00399	0.0844	0.0546	0.0025	0.00497	0.00195	0.00649	0.00784
298.15 K	0.0258	0.0153	0.00504	0.0882	0.0594	0.00298	0.00564	0.0024	0.00765	0.009
303.15 K	0.0303	0.0171	–	0.0947	0.0653	0.00358	–	0.00296	0.00867	0.0103
308.15 K	0.0329	0.0194	0.00755	0.1	0.0712	0.00414	0.00748	0.00354	0.0107	–
313.15 K	0.0374	0.0226	0.00936	0.106	–	0.00465	0.00853	0.00424	0.0119	0.0145
318.15 K	0.0409	0.0254	–	0.113	–	0.00556	0.00951	–	0.0138	–
323.15 K	0.0448	0.0295	0.0128	–	–	0.00643	0.0111	0.00614	0.0163	0.0195
328.15 K	–	–	–	0.124	–	–	0.0127	–	–	–
333.15 K	–	–	0.0184	–	–	0.00795	0.0143	0.0081	–	0.0268
343.15 K	–	–	0.0265	–	–	–	–	–	–	0.0349
